{"source": "patent US9416145B2", "about": "“Compositions and methods for inhibiting activity of hypoxia-inducible transcription factor complex and its use for treatment of tumors” (priority 2012, dated 2016)", "key": {"[1]": {"target": "T1, GST-tagged CH1 domain of human p300 (aa residues 323-423) (Homo sapiens, UniProt Q09472)", "T1 construct": "CH1 domain of human p300 (aa residues 323-423)", "T1 sequence (Q09472 323-423)": "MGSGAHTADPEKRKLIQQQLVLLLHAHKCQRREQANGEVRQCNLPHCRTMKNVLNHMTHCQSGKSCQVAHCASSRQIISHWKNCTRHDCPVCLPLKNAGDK", "assay": "SPR direct binding to immobilized GST-CH1-p300", "set-up": "direct binding to GST-CH1-p300 (in words): dose or concentration left out as unconfirmed", "from_the_text": "Prior to undertaking more rigorous biophysical and biological characterization of dimeric ETPs LS69 and LS72, it was important to first characterize its thermodynamic binding properties toward the target, p300 CH1 domain. We conducted SPR experiments in the presence of DTT to mimic the reducing environment that would be found in the intracellular milieu. From the SPR sensorgrams it is clear that both LS69 and LS72 bind directly to the GST-tagged CH1 domain of human p300 (aa residues 323-423) with high affinity."}, "[2]": {"system": "HIF1 inducible promoter (hRE-hCMV-Luc) in MDA-MB-231 cells", "assay": "Luciferase assay of hypoxia-inducible promoter activity", "format": "cell-based, human", "details": "MDA-MB-231 hRE-hCMV-Luc, 300 uM desferrioxamine mesylate 18 h; 200 nM and 600 nM", "experimental": "We first examined the effect of designed ETPs on activation of the HIF1 inducible promoters. […] In the course of the experiment, cells were incubated with ETPs LS69, LS72, LS75 and DKP compound NP481. In parallel, untreated cells with only vehicle (DMSO) added, were used as controls. Hypoxia conditions were induced by incubating cells with 300 uM desferrioxamine mesylate for 18 h. Cells were harvested, lysed and the levels of luciferase were determined by a luminometer.\nLuciferase assays. MDA-MB-231-hRE-Luc cells were maintained in high glucose Dulbecco's Modified Eagles' Medium (DMEM) supplemented with 10%© fetal bovine serum and 0.4 g/L Geneticin (G418 sulfate, RPI Corporation). Cells were plated in 24-well dishes (BD Falcon) at a density of 6×10^4 cells/well using 1 mL of a 6.5×10^4 cell/mL suspension. […] Cells were incubated for 6 h at 37° C. in a humidified atmosphere with 5% CO2. Hypoxia was induced by adding desferrioxamine mesylate (DFO, Sigma) to a final concentration of 300 μM, and cells were incubated for an additional 18 hours. Whole cell lysate was isolated by washing the cells twice with ice cold PBS and then adding 150 μL of Cell Culture Lysis Reagent (CCLR, Promega). Lysate was collected, centrifuged at 13,000 rpm at 4° C., aliquoted, and stored at −80° C. Luciferase assays were conducted by allowing whole cell lysate and Luciferase Assay Reagent (Promega) come to ambient temperature for 1 hour prior to use. Luciferase assays were conducted according to the manufacturer's instructions (Promega) using a Turner TD-20e Luminometer. Relative light intensity measurements were normalized by performing a Bradford assay to determine the protein content of the lysate used in the luciferase assay. Briefly, 50 μL of cell lysate/luciferase assay reagent mix was added to 200 μL of Bradford reagent and 750 μl, of Millipore water in a 1.5 mL cuvette. Protein standards were created in the range of 1 mg/mL to 10 μg/mL using an appropriate amount of a 1 mg/mL BSA solution. Absorbance was measured at 595 nm using a DU-800 spectrophotometer. The experiments were carried out in triplicate. The results are presented in FIG. 6 with the bar graphs represent mean values, and error bars—standard error of the mean value."}, "VEGF mRNA in A549 cells": {"system": "VEGF mRNA in A549 cells", "assay": "qRT-PCR of VEGF mRNA in A549 cells", "format": "cell-based", "experimental": "(§1) FIG. 13 mRNA levels of three HIF1α inducible genes: VEGF, c-Met and Glut1 in A549 cells after treatment with LS72. Data from qRT-PCR experiments showing mRNA levels of three HIF1α inducible genes, VEGF, c-Met and Glut1 in A549 after treatment of the cells in a medium with 0.2% serum with LS72 (400 nM). Hypoxia was induced 300 μM by DFO. Error bars are ±s.e.m for the experiments performed in […]. Error bars are ±s.e.m. of experiments performed in triplicate. ***P<0.001, ** P<0.01, t test.\nFIG. 15 mRNA levels for VEGF in A549 cell line, illustrating the dose response to LS72 treatment at three different concentrations. qRT-PCR assays were performed in order to determine the mRNA levels for VEGF in A549 cell line treated with LS72 at concentrations: 100 nM, 400 nM, 1600 nM. Hypoxia was induced by DFO (300 μM). Error bars are ±sem for the experiments performed in triplicate. Error bars are ±s.e.m. of experiments performed in triplicate. ** P<0.01, * P<0.05, t test.\n(§2) After tests with various serum levels in the media and hypoxia induction methods, the conditions that worked remarkably and consistently well for the induction of HIF1α dependent genes were to keep A549 cells in 2% serum followed by treating cells with compound or control in the media with 0.2% serum for 48 h (FIG. 13). Under these conditions while hypoxia bag was the best option for induction of the LOX gene, the best hypoxic response leading to upregulation of many other HIF1α inducible genes was treatment with 300 μM DFO.\nThe hypoxia induction was done at a confluency of 85% cells in serum free F-12K medium with 300 μM DFO."}, "Glut1 mRNA in A549 cells": {"system": "Glut1 mRNA in A549 cells", "assay": "qRT-PCR of Glut1 mRNA in A549 cells", "format": "cell-based", "details": "300 μM DFO", "experimental": "as §1\nFIG. 17 qRT-PCR data for Glut1mRNA in 85% confluent A549 cells treated with LS72 at three different concentrations. qRT-PCR assays were performed in order to determine the mRNA levels for Glut1 in A549 cell line treated with LS72 at concentrations: 100 nM, 400 nM, 1600 nM. Hypoxia was induced with DFO (300 μM). Error bars are ±sem for the experiments performed in triplicate. Error bars are ±s.e.m. of experiments performed in triplicate. *** P<0.001, ** P<0.01, t test.\nAfter tests with various serum levels in the media and hypoxia induction methods, the conditions that worked remarkably and consistently well for the induction of HIF1α dependent genes were to keep A549 cells in 2% serum followed by treating cells with compound or control in the media with 0.2% serum for 48 h (FIG. 13). […]"}, "LOX mRNA in A549 cells": {"system": "LOX mRNA in A549 cells", "assay": "qRT-PCR of LOX mRNA in A549 cells", "format": "cell-based", "details": "A549, LS72 400 nM, hypoxia bag 48 h", "experimental": "FIGS. 14 (A) qRT-PCR data for LOX and (B) CXCR4 genes in A549 cells treated with LS72. Hypoxia was induced by hypoxia bag. Cells were maintained in F-12K medium with 2% serum. After reaching 65% confluency the cells were grown in serum free media and treated with LS72 (400 nM). Hypoxia was induced with DFO (300 μM) for 48 h. Error bars are s.e.m. of experiments performed in triplicate. **P<0.01, t test.\nas §2"}}}
{"smiles": "CN1C(=O)[C@]2(Cc3ccc(CCc4ccc(C[C@@]56SS[C@@](CO)(C(=O)N5C)N(C)C6=O)cc4)cc3)SS[C@@]1(CO)C(=O)N2C", "note": "(racemic) [LS72, 4,4′-((ethane-1,2-diylbis(4,1-phenylene))bis(methylene))bis(1-(hydroxymethyl)-5,7-dimethyl-2,3-dithia-5,7-diazabicyclo[2.2.2]octane-6,8-dione)]", "values": [{"measurement": "direct binding to GST-CH1-p300 (in words)", "setting": "[1]", "result": "bind directly"}, {"measurement": "kon", "setting": "[1]; in the presence of DTT, read-out: rate of association (ka)", "result": 4250, "unit": "M⁻¹ s⁻¹"}, {"measurement": "Kd", "setting": "[1]; off rate/on rate, read-out: binding constant KD", "result": 3.62, "unit": "µM"}, {"measurement": "hypoxia-inducible promoter activity (luciferase)", "setting": "[2]", "result": "significant reduction in hypoxia-inducible promoter activity"}, {"measurement": "HIF1α inducible transcription of VEGF, dose response", "setting": "VEGF mRNA in A549 cells; A549 85% confluent, hypoxia 300 μM DFO, 100 nM, 400 nM, 1600 nM", "result": "dose dependent decrease"}, {"measurement": "reduction of VEGF mRNA levels", "setting": "VEGF mRNA in A549 cells; A549, LS72 400 nM, 0.2% serum, 300 μM DFO, 48 h", "result": 50, "unit": "%"}, {"measurement": "VEGF transcription levels in normoxia", "setting": "VEGF mRNA in A549 cells; A549, normoxia, 100 nM, 400 nM, 1600 nM", "result": "not changed significantly"}, {"measurement": "Glut1 hypoxic transcriptional up-regulation, dose response", "setting": "Glut1 mRNA in A549 cells; A549 85% confluent, 100 nM, 400 nM, 1600 nM", "result": "dose dependent decrease"}, {"measurement": "reduction of Glut1 mRNA levels", "setting": "Glut1 mRNA in A549 cells; A549, LS72 400 nM, 0.2% serum, 48 h", "result": "more than 60%"}, {"measurement": "LOX transcriptional activity (in words)", "setting": "LOX mRNA in A549 cells", "result": "significant downregulation in the transcriptional activity"}]}
